Measurements: patent publication US4189349A, “α,δ-Diaminoacid and its lactam” (Rhone-Poulenc Industries, priority 1977, dated 1980)
≈ marks a conversion by molar mass, not a printed value. Where two headings read alike, the source gives them in different places.

What was measured:
Toxicity in mice = settings: mouse, in vivo; mice, oral; read-out: 50% lethal dose (LD50)
[1] = Potentiometric titration of an aqueous solution; format: physicochemical; settings: water
Source text: The potentiometric equivalent is about 390.
The potentiometric equivalent is about 400.
The potentiometric equivalent is about 370.

Candida albicans = experiment: Anti-fungal activity in vivo, generalised candidosis in mice; design: species or system Candida albicans in mice; settings: orally or subcutaneously, between 25 mg/kg and 200 mg/kg per day for 4 consecutive days
[2] = Solubility (French Pharmacopoeia terms / in water); format: physicochemical
Method: 32232 RP and 35391 RP are of particular interest because of their activity on fungi and yeasts. 32232 RP, in the form of the internal salt, is characterised by the following physical properties:
Solubility: 35391 RP is soluble in water at the rate of about 10 mg/cc.

Blastomyces dermatitidis = experiment: Anti-fungal activity in vitro by dilution method; format: cell-based; settings: 95 to 100% inhibition, read-out: Minimum active concentration (AC 95-100)
Method: (§1) Anti-fungal activity in vitro: The anti-fungal activity of 32232 RP and of 35391 RP towards a certain number of fungi has been determined by one of the dilution methods usually employed for this purpose. For each fungus, the smallest concentration of active substance which, under defined conditions, causes 95 to 100% inhibition of the fungus (AC 95-100) was determined. The results of the various determinations are summarised in Table III below, where the minimum active concentrations are expressed in micrograms of substance per cc. of test medium.

Fusarium oxysporum = experiment: Anti-fungal activity in vitro by dilution method; format: cell-based; settings: 95 to 100% inhibition, read-out: Minimum active concentration (AC 95-100)
Method: as §1

Hansenula anomala = experiment: Anti-fungal activity in vitro by dilution method; format: cell-based; settings: 95 to 100% inhibition, read-out: Minimum active concentration (AC 95-100)
Method: as §1

Aspergillus niger = experiment: Anti-fungal activity in vitro by dilution method; format: cell-based; settings: 95 to 100% inhibition, read-out: Minimum active concentration (AC 95-100)
Method: as §1

[3] = tested on: Saccharomyces pastorianus; experiment: Anti-fungal activity in vitro by dilution method; format: cell-based; settings: 95 to 100% inhibition, read-out: Minimum active concentration (AC 95-100)
Method: as §1

Botrytis cinerea = experiment: Anti-fungal activity in vitro by dilution method; format: cell-based; settings: 95 to 100% inhibition, read-out: Minimum active concentration (AC 95-100)
Method: as §1

Penicillium digitatum = experiment: Anti-fungal activity in vitro by dilution method; format: cell-based; settings: 95 to 100% inhibition, read-out: Minimum active concentration (AC 95-100)
Method: as §1

Mucor corymbifer = experiment: Anti-fungal activity in vitro by dilution method; format: cell-based; settings: Lichtheimia corymbifera, 95 to 100% inhibition, read-out: Minimum active concentration (AC 95-100)
Method: as §1

[4] = tested on: Saccharomyces ellipsoideus; experiment: Anti-fungal activity in vitro by dilution method; format: cell-based; settings: 95 to 100% inhibition, read-out: Minimum active concentration (AC 95-100)
Method: as §1

Saccharomyces cerevisiae = experiment: Anti-fungal activity in vitro by dilution method; format: cell-based; settings: 95 to 100% inhibition, read-out: Minimum active concentration (AC 95-100)
Method: as §1

Epidermophyton floccosum = experiment: Anti-fungal activity in vitro by dilution method; format: cell-based; settings: 95 to 100% inhibition, read-out: Minimum active concentration (AC 95-100)
Method: as §1

[5] = tested on: Trichophyton mentagrophytes; experiment: Anti-fungal activity in vitro by dilution method; format: cell-based; settings: 95 to 100% inhibition, read-out: Minimum active concentration (AC 95-100)
Method: as §1

Rhizopus nigricans = experiment: Anti-fungal activity in vitro by dilution method; format: cell-based; settings: Rhizopus stolonifer, 95 to 100% inhibition, read-out: Minimum active concentration (AC 95-100)
Method: as §1

Microsporum canis = experiment: Anti-fungal activity in vitro by dilution method; format: cell-based; settings: 95 to 100% inhibition, read-out: Minimum active concentration (AC 95-100)
Method: as §1

Candida albicans Hi 7 = experiment: Anti-fungal activity in vitro by dilution method; format: cell-based; settings: HI7, 95 to 100% inhibition, read-out: Minimum active concentration (AC 95-100)
Method: as §1

Candida albicans IP 200 = experiment: Anti-fungal activity in vitro by dilution method; format: cell-based; settings: IP200, 95 to 100% inhibition, read-out: Minimum active concentration (AC 95-100)
Method: as §1

[6] = Anti-fungal activity in vitro by dilution method; format: cell-based; settings: Trichophyton rubrum; 95 to 100% inhibition; Microsporum rubrum; read-out: Minimum active concentration (AC 95-100)
Method: as §1

Aspergillus fumigatus = experiment: Anti-fungal activity in vitro by dilution method; format: cell-based; settings: 95 to 100% inhibition, read-out: Minimum active concentration (AC 95-100)
Method: as §1

Candida albicans Pa 1 = experiment: Anti-fungal activity in vitro by dilution method; format: cell-based; settings: PA1, 95 to 100% inhibition, read-out: Minimum active concentration (AC 95-100)
Method: as §1

Candida krusei IP 208 = experiment: Anti-fungal activity in vitro by dilution method; format: cell-based; settings: Pichia kudriavzevii, IP208, 95 to 100% inhibition, read-out: Minimum active concentration (AC 95-100)
Method: as §1

bacteria = experiment: Bacteriostatic activity towards bacteria; format: cell-based
mice = experiment: Toxicity in mice; settings: mouse, in vivo, 1000 mg/kg
[7] = 0.1M hydrochloric acid, read-out: apparent pKa of basic group

SMILES	pKa [1, 7]	Anti-fungal activity in vivo against generalised candidosis (Candida albicans)	MIC (Blastomyces dermatitidis) [µg/mL]	MIC (Fusarium oxysporum) [µg/mL]	MIC (Hansenula anomala) [µg/mL]	MIC (Aspergillus niger) [µg/mL]	MIC [3] [µg/mL]	MIC (Botrytis cinerea) [µg/mL]	MIC (Penicillium digitatum) [µg/mL]	MIC (Mucor corymbifer) [µg/mL]	MIC [4] [µg/mL]	MIC (Saccharomyces cerevisiae) [µg/mL]	MIC (Epidermophyton floccosum) [µg/mL]	MIC [5] [µg/mL]	MIC (Rhizopus nigricans) [µg/mL]	MIC (Microsporum canis) [µg/mL]	MIC (Candida albicans Hi 7) [µg/mL]	MIC (Candida albicans IP 200) [µg/mL]	MIC [6] [µg/mL]	MIC (Aspergillus fumigatus) [µg/mL]	also measured
Nc1ncnc2c1ncn2C1OC(CC(N)CCC(N)C(=O)O)C(O)C1O (stereo not drawn) [32232 RP]	8.1	particularly active	5 (≈ 13.1 µM)	> 500	2 (≈ 5.24 µM)	> 500	0.3 (≈ 0.787 µM)	> 500	15 (≈ 39.3 µM)	> 500	0.9 (≈ 2.36 µM)	0.3 (≈ 0.787 µM)	> 500	> 500	> 500	> 500	5 (≈ 13.1 µM)	5 (≈ 13.1 µM)	> 500	> 500	LD50 (Toxicity in mice): > 1000 mg/kg; pKa ([1]; 0.1M sodium hydroxide, read-out: apparent pKa of weak acid group): 9.8; Solubility ([2]; in acetone, internal salt, French Pharmacopoeia): virtually insoluble; Solubility ([2]; in dimethylformamide, internal salt, French Pharmacopoeia): very slightly soluble; Solubility ([2]; in methanol, internal salt, French Pharmacopoeia): very slightly soluble; Solubility ([2]; in water, internal salt, French Pharmacopoeia): easily soluble; MIC (Candida albicans Pa 1): 3 µg/mL (≈ 7.87 µM); MIC (Candida krusei IP 208): 4 µg/mL (≈ 10.5 µM); bacteriostatic activity towards bacteria (bacteria): generally devoid of bacteriostatic activity
Nc1ncnc2c1ncn2C1OC(CC2CCC(N)C(=O)N2)C(O)C1O (stereo not drawn) [35391 RP]	7.7	particularly active	60 (≈ 165 µM)	> 500	35 (≈ 96.3 µM)	> 500	7 (≈ 19.3 µM)	> 500	25 (≈ 68.8 µM)	> 500	15 (≈ 41.3 µM)	10 (≈ 27.5 µM)	250 (≈ 688 µM)	350 (≈ 963 µM)	> 500	300 (≈ 826 µM)	75 (≈ 206 µM)	70 (≈ 193 µM)	300 (≈ 826 µM)	> 500	Toxicity (mice): non-toxic; Solubility ([2]; in water, read-out: Solubility): ~10000 µg/mL (≈ 27500 µM); MIC (Candida albicans Pa 1): 40 µg/mL (≈ 110 µM); MIC (Candida krusei IP 208): 60 µg/mL (≈ 165 µM); bacteriostatic activity towards bacteria (bacteria): generally devoid of bacteriostatic activity
